In one experiment the target is T1, PTK2 (Homo sapiens, UniProt Q05397).
T1 construct: purchased Invitrogen PV3832
Kind of experiment: PTK2 Enzyme Test (DELFIA assay, poly-Glu-Tyr substrate). The class given is biochemical. The settings on record: active PTK2 enzyme, 50 μM ATP in ATP Mix, 1 h pre-incubation. In short, it runs like this:
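Active PTK2 (0.01 μg/well) pre-incubated 1 h at RT with compound, then reacted 1 h with 50 μM ATP (in ATP mix) and poly(Glu,Tyr) 4:1 substrate, 2% DMSO final, pH 7.5. Biotinylated product captured on streptavidin, detected by Eu-PY20 time-resolved fluorescence; IC50 by sigmoidal fit, variable Hill slope.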

Experiment [1] addresses T2, PTK2-phosphorylation at tyrosine 397 (pY397) (Homo sapiens, UniProt Q05397).
T2 construct: endogenous in cells; host or cells: PC-3 (ATCC CRL-1435)
Kind of experiment: Phospho-PTK2 (pY397) Assay in PC-3 cells. The class given is cell-based. The settings on record: PC-3 prostate carcinoma cells, 2 h incubation; read-out: PC3pPTK2 Y397 EC50. In short, it runs like this: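 PC-3 cells (2×10^4/well, F12K + 10% FCS) exposed to compound (about 0.8 nM–50 μM, 1% DMSO final) for 2 h at 37 °C. Then formaldehyde-fixed and immunostained with anti-pY397 PTK2 (total PTK2 control) and an HRP secondary. EC50 from sigmoidal fit with variable Hill slope.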

The structures appear in SMILES notation.

T1 sequence (Q05397 whole entry): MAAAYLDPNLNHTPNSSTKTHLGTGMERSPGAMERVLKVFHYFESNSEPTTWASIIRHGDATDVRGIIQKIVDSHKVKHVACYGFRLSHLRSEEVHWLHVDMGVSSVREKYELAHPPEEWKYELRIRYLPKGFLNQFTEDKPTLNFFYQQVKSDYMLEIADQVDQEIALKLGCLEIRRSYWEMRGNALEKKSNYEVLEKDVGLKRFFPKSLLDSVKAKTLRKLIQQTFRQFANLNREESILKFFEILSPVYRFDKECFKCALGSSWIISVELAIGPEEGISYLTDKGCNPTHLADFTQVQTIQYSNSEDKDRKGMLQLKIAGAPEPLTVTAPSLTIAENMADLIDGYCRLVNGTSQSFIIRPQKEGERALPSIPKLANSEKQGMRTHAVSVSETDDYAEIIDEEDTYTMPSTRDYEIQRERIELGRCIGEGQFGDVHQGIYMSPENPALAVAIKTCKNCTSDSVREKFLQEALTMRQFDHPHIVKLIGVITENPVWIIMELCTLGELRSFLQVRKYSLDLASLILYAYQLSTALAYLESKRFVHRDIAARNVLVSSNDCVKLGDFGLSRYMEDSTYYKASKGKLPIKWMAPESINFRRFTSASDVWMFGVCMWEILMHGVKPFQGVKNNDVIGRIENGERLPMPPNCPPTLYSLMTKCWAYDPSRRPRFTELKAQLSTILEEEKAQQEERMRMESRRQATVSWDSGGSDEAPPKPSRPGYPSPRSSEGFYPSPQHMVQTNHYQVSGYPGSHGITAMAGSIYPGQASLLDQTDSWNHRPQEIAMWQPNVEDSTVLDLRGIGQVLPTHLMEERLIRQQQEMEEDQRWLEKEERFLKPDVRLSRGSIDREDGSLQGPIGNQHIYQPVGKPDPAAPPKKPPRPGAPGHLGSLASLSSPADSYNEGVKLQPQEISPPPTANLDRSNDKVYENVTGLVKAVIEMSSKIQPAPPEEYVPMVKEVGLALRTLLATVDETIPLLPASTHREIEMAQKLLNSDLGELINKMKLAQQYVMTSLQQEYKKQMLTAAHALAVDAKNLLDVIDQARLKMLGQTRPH
T2 sequence (Q05397 whole entry): as above

Broadly, the IC50 is the concentration needed to halve the response being measured. Low readings indicate greater potency, high ones weaker potency. Broadly, the EC50 is the concentration that produces a half-maximal response. As to `Cc1ccc(CNc2nc(Nc3ccc(C(=O)N[C@H]4CC[C@H](N5CCN(CC6CC6)CC5)CC4)cc3F)ncc2C(F)(F)F)c(N(C)S(C)(=O)=O)c1` [Example 91], 3 nM corresponded to half-maximal inhibition against PTK2 (IC50). In experiment [1], the EC50 stood at 2 nM.
For `COc1cc(N2CCN(C3COC3)CC2)ccc1Nc1ncc(C(F)(F)F)c(NCc2ccc(C)cc2N(C)S(C)(=O)=O)n1` [Example 32], in that order: 4 nM and 0.3 nM.
`COc1cc(C(=O)N[C@H]2CCN(C)C2)c(F)cc1Nc1ncc(C(F)(F)F)c(NCc2ccc(C)cc2N(C)S(C)(=O)=O)n1` [Example 23] showed an IC50 against PTK2 of 1 nM. For the same molecule, the EC50 in experiment [1] worked out at 0.23 nM.
For `COc1cc(C(=O)N[C@@H]2CCN(C)C[C@@H]2F)ccc1Nc1ncc(C(F)(F)F)c(NCc2ccc(C)cc2N(C)S(C)(=O)=O)n1` [Example 106], the IC50 on PTK2 worked out at 4 nM. The half-maximal effective concentration (EC50) in experiment [1] was found to be 2 nM.
`COc1cc(C(=O)NC2CCN(C3CCCCC3)CC2)ccc1Nc1ncc(C(F)(F)F)c(NCc2ccc(C)cc2N(C)S(C)(=O)=O)n1` [Example 16] gave a half-maximal inhibitory concentration (IC50) on PTK2 of 4 nM. In addition, the EC50 in experiment [1] stood at 0.19 nM.
For `COc1cc(C(=O)N[C@@H]2CCN(C)C2)c(Cl)cc1Nc1ncc(C(F)(F)F)c(NCc2ccc(C)cc2N(C)S(C)(=O)=O)n1` [Example 58] the same measures were 3 nM and 0.59 nM.
At PTK2, `COc1cc(N2CCN(CC(=O)N(C)C)CC2)ccc1Nc1ncc(C(F)(F)F)c(NCc2ccc(F)cc2N(C)S(C)(=O)=O)n1` [Example 82] came in with an IC50 of 2 nM. Further, the EC50 in experiment [1] is 1 nM.
For `COc1cc(C(=O)NC2CCC(N3CCN(CC4CC4)CC3)CC2)c(C)cc1Nc1ncc(C(F)(F)F)c(NCc2ccc(C)cc2N(C)S(C)(=O)=O)n1` (stereo not drawn) [Example 107], in that order: 4 nM and 2 nM.
`COc1cc(CNC2CCC2)ccc1Nc1ncc(C(F)(F)F)c(NCc2ccc(C)cc2N(C)S(C)(=O)=O)n1` [Example 61] yielded an IC50 against PTK2 of 2 nM. In experiment [1], the EC50 turned out to be 0.6 nM.
As for `COc1cc(N2CCN(C3CCN(C)CC3)CC2)ccc1Nc1ncc(C(F)(F)F)c(NCc2ccc(C)cc2N(C)S(C)(=O)=O)n1` [Example 112], the IC50 against PTK2 is 2 nM. The half-maximal effective concentration (EC50) in experiment [1] was determined as 3 nM.
As for `CCc1cc(C(=O)NC)ccc1Nc1ncc(C(F)(F)F)c(NCc2ccc(C)cc2N(C)S(C)(=O)=O)n1` [Example 121], the IC50 against PTK2 came out at 2 nM. Also, the EC50 in experiment [1] is 3 nM.
Molecule `COc1cc(C(=O)NCC2CCCO2)ccc1Nc1ncc(C(F)(F)F)c(NCc2ccc(C)cc2N(C)S(C)(=O)=O)n1` (stereo not drawn) [Example 70] registered an IC50 against PTK2 of 4 nM. Also, the EC50 in experiment [1] worked out at 0.74 nM.
At PTK2, `COc1cc(C(=O)N[C@@H]2CCN(C)C2)c(F)cc1Nc1ncc(C(F)(F)F)c(NCc2ccc(C)cc2N(C)S(C)(=O)=O)n1` [Example 36] registered an IC50 of 2 nM. The EC50 in experiment [1] was 0.32 nM.
The molecule `COc1cc(C(=O)NC2CCC(N3CCOCC3)CC2)c(C)cc1Nc1ncc(C(F)(F)F)c(NCc2ccc(C)cc2N(C)S(C)(=O)=O)n1` (stereo not drawn) [Example 84] returned an IC50 against PTK2 of 3 nM. Moreover, the concentration giving a half-maximal response (EC50) in experiment [1] came out at 1 nM.
`COc1cc(CNCCN(C)C)ccc1Nc1ncc(C(F)(F)F)c(NCc2ccc(C)cc2N(C)S(C)(=O)=O)n1` [Example 88]: half-maximal inhibition against PTK2 (IC50) required 4 nM. Also, the EC50 in experiment [1] worked out at 1 nM.
As to `Cc1ccc(CNc2nc(Nc3ccc(C(=O)N[C@H]4CC[C@H](N5CCOCC5)CC4)cc3F)ncc2C(F)(F)F)c(N(C)S(C)(=O)=O)c1` [Example 92], the IC50 against PTK2 turned out to be 1 nM. The EC50 in experiment [1] was 2 nM.
For `COc1cc(C(=O)NC2CCN(CC(F)F)CC2)ccc1Nc1ncc(C(F)(F)F)c(NCc2ccc(C)cc2N(C)S(C)(=O)=O)n1` [Example 18], 3 nM corresponded to half-maximal inhibition against PTK2 (IC50). Moreover, the EC50 in experiment [1] is 0.2 nM.
Take `COc1cc(CN2CCCC2)ccc1Nc1ncc(C(F)(F)F)c(NCc2ccc(C)cc2N(C)S(C)(=O)=O)n1` [Example 56]: at PTK2, the midpoint of inhibition, the IC50, lay at 2 nM. Moreover, the EC50 in experiment [1] amounted to 0.56 nM.
For `COc1ccc(CNc2nc(Nc3ccc(NC(C)=O)c(C)c3)ncc2C(F)(F)F)c(N(C)S(C)(=O)=O)c1` [Example 118], in that order: 1 nM and 3 nM.
Turning to `COc1cc(CN(C)C)ccc1Nc1ncc(C(F)(F)F)c(NCc2ccc(F)cc2N(C)S(C)(=O)=O)n1` [Example 5], on PTK2, the concentration for half-maximal inhibition (IC50) is 0.86 nM. The EC50 in experiment [1] turned out to be 0.12 nM.
As to `COc1cc(C(=O)N[C@H]2CCCN(C3CCCC3)C2)ccc1Nc1ncc(C(F)(F)F)c(NCc2ccc(C)cc2N(C)S(C)(=O)=O)n1` [Example 47], the IC50 against PTK2 came to 6 nM. Also, in experiment [1], the EC50 amounted to 0.5 nM.
On to `COc1cc(N2CCN(CC(=O)N3CCOCC3)CC2)ccc1Nc1ncc(C(F)(F)F)c(NCc2ccc(C)cc2N(C)S(C)(=O)=O)n1` [Example 42], for which the IC50 on PTK2 came to 4 nM. For the same molecule, the EC50 in experiment [1] came out at 0.39 nM.
As for `CCc1cc(C(=O)NOC)ccc1Nc1ncc(C(F)(F)F)c(NCc2ccc(C)cc2N(C)S(C)(=O)=O)n1` [Example 122], 2 nM corresponded to half-maximal inhibition on PTK2 (IC50). Moreover, the EC50 in experiment [1] amounted to 3 nM.
At PTK2, `COC(=O)Nc1cc(OC)c(Nc2ncc(C(F)(F)F)c(NCc3ccc(C)cc3N(C)S(C)(=O)=O)n2)cc1C` [Example 124] displayed an IC50 of 5 nM. For the same molecule, the EC50 in experiment [1] amounted to 3 nM.
Regarding `COc1cc(C(=O)N[C@@H]2CCCN(C(C)C)C2)ccc1Nc1ncc(C(F)(F)F)c(NCc2ccc(C)cc2N(C)S(C)(=O)=O)n1` [Example 10], half-maximal inhibition on PTK2 (IC50) was put at 2 nM. Also, the EC50 in experiment [1] turned out to be 0.14 nM.
Turning to `CCCNC(=O)c1ccc(Nc2ncc(C(F)(F)F)c(NCc3ccc(F)cc3N(C)S(C)(=O)=O)n2)c(OC)c1` [Example 115], the IC50 on PTK2 was 5 nM. In experiment [1], the EC50 amounted to 3 nM.
Take `COc1cc(C(=O)NC2CCC(NC(C)=O)CC2)ccc1Nc1ncc(C(F)(F)F)c(NCc2ccc(C)cc2N(C)S(C)(=O)=O)n1` (stereo not drawn) [Example 48]: the concentration for half-maximal inhibition (IC50) against PTK2 is 4 nM. Further, the EC50 in experiment [1] came out at 0.51 nM.
Turning to `COc1cc(C(=O)NC2CCN(C)CC2)c(F)cc1Nc1ncc(C(F)(F)F)c(NCc2ccc(Cl)cc2N(C)S(C)(=O)=O)n1` [Example 90], at PTK2, 1 nM corresponded to half-maximal inhibition (IC50). Besides, the EC50 in experiment [1] was determined as 2 nM.
Consider `COc1ccc(CNc2nc(Nc3cc(F)c(C(=O)N[C@H]4CCN(C)C4)cc3OC)ncc2C(F)(F)F)c(N(C)S(C)(=O)=O)c1` [Example 29], for which the IC50 on PTK2 was 2 nM. Also, in experiment [1], the EC50 turned out to be 0.29 nM.
For the molecule `CNC(=O)c1cc(OC)c(Nc2ncc(C(F)(F)F)c(NCc3ccc(C)cc3N(C)S(C)(=O)=O)n2)cc1C` [Example 54], half-maximal inhibition at PTK2 (IC50) required 3 nM. The EC50 in experiment [1] is 0.55 nM.
`COc1cc(C(=O)NC2CCN(C)CC2)ccc1Nc1ncc(C(F)(F)F)c(NCc2ccc(Cl)cc2N(C)S(C)(=O)=O)n1` [Example 111] had a concentration for half-maximal inhibition (IC50) against PTK2 of 1 nM. For the same molecule, the concentration giving a half-maximal response (EC50) in experiment [1] was 3 nM.
On PTK2, `COc1cc(C(=O)N[C@@H]2CCN(C)C[C@H]2F)c(F)cc1Nc1ncc(C(F)(F)F)c(NCc2ccc(C)cc2N(C)S(C)(=O)=O)n1` [Example 19] returned an IC50 of 3 nM. For the same molecule, the EC50 in experiment [1] was found to be 0.2 nM.
On PTK2, `COc1cc(C(=O)N[C@H]2CC[C@H](N3CCN(CC4CC4)CC3)CC2)ccc1Nc1ncc(C(F)(F)F)c(NCc2ccc(C)cc2N(C)S(C)(=O)=O)n1` [Example 95] gave an IC50 of 3 nM. Moreover, the EC50 in experiment [1] was 2 nM.
`COc1cc(C(=O)NC2CCC(N(C)C(C)C)CC2)ccc1Nc1ncc(C(F)(F)F)c(NCc2ccc(C)cc2N(C)S(C)(=O)=O)n1` (stereo not drawn) [Example 31] came in with an IC50 on PTK2 of 1 nM. Besides, the EC50 in experiment [1] was 0.29 nM.
Turning to `COc1cc(C(=O)N[C@H]2CN3CCC2CC3)ccc1Nc1ncc(C(F)(F)F)c(NCc2ccc(C)cc2N(C)S(C)(=O)=O)n1` [Example 28], the concentration for half-maximal inhibition (IC50) at PTK2 amounted to 4 nM. Besides, in experiment [1], the EC50 came out at 0.27 nM.
`COc1cc(C(=O)NC2CCN(C)CC2)ccc1Nc1ncc(C(F)(F)F)c(NCc2ccc(C)cc2N(C)S(C)(=O)=O)n1` [Example 73, 4-{4-[2-(methanesulphonyl-methyl-amino)-4-methyl-benzylamino]-5-trifluoromethyl-pyrimidin-2-ylamino}-3-methoxy-N-(1-methyl-piperidin-4-yl)-benzamide] had an IC50 against PTK2 of 1 nM. Also, the EC50 in experiment [1] was 0.77 nM.
In turn, `COc1cc(C(=O)NC2CCN(C)CC2)ccc1Nc1ncc(C(F)(F)F)c(NCc2ccc(F)cc2N(C)S(C)(=O)=O)n1` [Example 52] returned an IC50 against PTK2 of 1 nM. Also, the EC50 in experiment [1] amounted to 0.54 nM.
Molecule `COc1cc(C(=O)N[C@H]2CCN(C)C2)c(Cl)cc1Nc1ncc(C(F)(F)F)c(NCc2ccc(C)cc2N(C)S(C)(=O)=O)n1` [Example 120] showed a 50% inhibitory concentration (IC50) against PTK2 of 3 nM. Further, the EC50 in experiment [1] was 3 nM.
In turn, `COc1cc(C(=O)NC[C@@H](C)N2CCCC2)ccc1Nc1ncc(C(F)(F)F)c(NCc2ccc(C)cc2N(C)S(C)(=O)=O)n1` [Example 6] had an IC50 at PTK2 of 3 nM. The EC50 in experiment [1] came to 0.13 nM.
`COc1cc(N2CCN(CC(=O)N(C)C)CC2)ccc1Nc1ncc(C(F)(F)F)c(NCc2ccc(C)cc2N(C)S(C)(=O)=O)n1` [Example 33] came in with an IC50 against PTK2 of 2 nM. Moreover, in experiment [1], the concentration for a half-maximal effect (EC50) was determined as 0.3 nM.
Consider `COc1cc(C(=O)N[C@H]2CC[C@@H]3[C@@H](CCN3C)C2)ccc1Nc1ncc(C(F)(F)F)c(NCc2ccc(C)cc2N(C)S(C)(=O)=O)n1` [Example 65], for which the 50% inhibitory concentration (IC50) at PTK2 was determined as 4 nM. In addition, in experiment [1], the EC50 was 0.67 nM.
On PTK2, `COc1cc(C(=O)N(C)C2CCN(C)CC2)ccc1Nc1ncc(C(F)(F)F)c(NCc2ccc(C)cc2N(C)S(C)(=O)=O)n1` [Example 108] showed an IC50 of 2 nM. Also, the EC50 in experiment [1] came to 2 nM.

For the origin of these results see US8377943B2, “2,4-diaminopyrimidine derivates as PTK2-inhibitors for the treatment of abnormal cell growth” (Boehringer Ingelheim International GmbH, priority 2008, dated 2013).
